Measurements taken from paper PMC11247118 (CPT: Pharmacometrics & Systems Pharmacology, 2024).
Like-named read-outs stand apart in the source and are kept apart here.

Tests used:
[1] = Therapeutic drug monitoring of serum vancomycin concentrations; conditions: serum TDM samples, SD
[2] = system: Gram-positive bacteria / MRSA; conditions: cited from earlier work
[3] = system: Patient bacterial isolates (Gram-positive); assay: MIC of vancomycin for patient bacterial isolates; type: cell-based; conditions: majority of clinical isolates of the two study institutions, broth microdilution
[4] = cited from earlier work
[5] = system: Gram-positive bacteria; conditions: 29 of 180 cases with Gram-positive isolates detected
[6] = cited from earlier work; remark: listed apart in the source
[7] = Population pharmacokinetic model; conditions: for CLp, typical value of apparent clearance / Vp, typical value of apparent volume of distribution: estimate (% standard error), SEM
[8] = bootstrap of final model, 996/1000 runs successful

CN[C@H](CC(C)C)C(=O)N[C@H]1C(=O)N[C@@H](CC(N)=O)C(=O)N[C@H]2C(=O)N[C@H]3C(=O)N[C@H](C(=O)N[C@H](C(=O)O)c4cc(O)cc(O)c4-c4cc3ccc4O)[C@H](O)c3ccc(c(Cl)c3)Oc3cc2cc(c3O[C@@H]2O[C@H](CO)[C@@H](O)[C@H](O)[C@H]2O[C@H]2C[C@](C)(N)[C@H](O)[C@H](C)O2)Oc2ccc(cc2Cl)[C@H]1O [vancomycin]
Vancomycin concentration, mean ± standard deviation ([1]; model validation dataset N = 67, 76 concentrations): 6.89 ± 2.63 mg/L
Vancomycin concentration, mean ± standard deviation ([1]; model-building dataset N1 = 210, 272 concentrations): 8.7 ± 6.0 mg/L
Vancomycin concentration, mean ± standard deviation ([1]; model-building dataset N2 = 176, 249 concentrations): 8.27 ± 5.85 mg/L
Vancomycin concentration, mean ± standard deviation ([1]; model-building dataset Total = 386, 521 concentrations): 8.52 ± 5.93 mg/L
microbiological eradication rate ([2]; multicenter study, Chinese children, 37.79 ± 11.31 mg/kg/day): > 80%
overall clinical effective rate ([2]; pediatric patients with median AUC/MIC between 200 and 300, ref 40 (Shen et al.)): 92.6%
MIC values of clinical isolates [3]: ≤ 1 µg/mL
AUC0-24 threshold for predicting vancomycin-associated nephrotoxicity ([4]; Chinese children): < 537 µg·h/mL
AUC0-24 threshold for predicting vancomycin-associated nephrotoxicity ([4]; Chinese neonates): < 480 µg·h/mL
treatment failure rate [5]: 16%
fraction eliminated by the renal system and excreted in the urine as a prototype ([6]; after intravenous administration): approximately 90%
inter-individual variability (IIV) of clearance (CL) ([6]; reported to reach as high as): ≤ 99.2%
known range of weight-adjusted CL in pediatric patients ([6]; summarized in a systematic review): 0.258 to 4.25 mL/min/kg
CLage>2, bootstrap median [7, 8]: 2.56 L/h
CLage≤2, bootstrap median [7, 8]: 1.97 L/h
Vd, bootstrap median [7, 8]: 22.2 L
CLp, typical value of apparent clearance ([7]; candidate Model I, 3/4 allometric model): 2.09 (4.3) L/h
Vp, typical value of apparent volume of distribution ([7]; candidate Model I): 40.9 (14.6) L
CLp, typical value of apparent clearance ([7]; candidate Model II, allometric model): 2.10 (4.0) L/h
Vp, typical value of apparent volume of distribution ([7]; candidate Model II): 23.8 (28.2) L
Vp, typical value of apparent volume of distribution ([7]; candidate Model III): 40.8 (14.5) L
Vp, typical value of apparent volume of distribution ([7]; candidate Model IV): 23.0 (25.5) L
CLp, typical value of apparent clearance ([7]; candidate Model V, BW-dependent exponent model): 2.30 (5.0) L/h
Vp, typical value of apparent volume of distribution ([7]; candidate Model V): 23.3 (27.1) L
CLp, typical value of apparent clearance ([7]; candidate Model VI, age-dependent exponent model): 2.42 (5.5) L/h
Vp, typical value of apparent volume of distribution ([7]; candidate Model VI): 22.7 (25.5) L
weight-adjusted typical CL ([7]; final PPK model, age >2 years old): 3.6 mL/min/kg
CLage>2, final model estimate ([7]; final PPK model, age >2 years old, typical value at BW 12 kg and CLcr 75 mL/min): 2.59 L/h
weight-adjusted typical CL ([7]; final PPK model, age ≤2 years old): 2.75 mL/min/kg
CLage≤2, final model estimate ([7]; final PPK model, age ≤2 years old, typical value at BW 12 kg and CLcr 75 mL/min): 1.98 L/h
Vd, final model estimate ([7]; final PPK model, typical value at BW 12 kg): 22.4 L
